Measurements from patent publication US20230158136A1 (priority 2021, published 2023).
Where no end group is shown, it is not given here.

Assay: in vitro
Conditions: human, 293T cells

Question: For KKALLAHALHLLALLALHLAHALKKA-NH2 [LAH4], which CC50 at 24 h is on record?
Answer: > 125 µg/mL
